# Laboratory results from patent publication US7807844B2, “TGF-β gene expression inhibitor” (Nihon University, priority 2003, dated 2010).
# Columns and labels:
# hTGF-β1 mRNA = experiment: RT-PCR assay of hTGF-β1 mRNA in hVSMC; assay type: cell-based, human; conditions: for expression of hTGF-β1 mRNA: 10^−9 M, 24 hr, TPA induced
# Experimental: Treatment with 50 ng/mL of TPA was used as a positive control. […] (A) Five microliters of PCR product was separated on a 1.5% agarose gel electrophoresis. […] Cultured cells were washed with PBS, dissolved in 800 μL of RNAzolB (Biotex Laboratories, Inc., Houston, Tex.), mixed with 80 μL of chloroform and centrifuged. The colorless upper aqueous phase was mixed with an equal volume of isopropanol to precipitate RNA. RNA pellet was washed twice with 500 μL of 75% ethanol and, after drying, dissolved in 10 μL of TE buffer. After denaturing at 65° C. for 15 min, the RNA sample was treated with 0.5 U DNase (Gibco) in 0.5 ml of DNase buffer (20 mM Tris-HCl pH 8.3, 50 mM KCl, 2.5 mM MgCl2) at room temperature for 45 min. DNase was denatured by adding 0.5 ml of 0.5M EDTA and heating at 98° C. for 10 min. RNA aliquots of an equal amount (1 μg/20 μL) were reverse transcribed to single stranded cDNAs using 2.5 U/20 μL of avian myeloblastosis virus reverse transcriptase (Takara Biochemicals, Osaka, Japan) in 10 mM Tris-HCl (pH 8.3), 5 mM MgCl2, 50 mM KCl, 1 mM deoxy NTPs and 2.5 μM random hexamers. Two microliters of the diluted cDNA product was made up to 25 μl by mixing with 10 mM Tris-HCl (pH 8.3), 50 mM KCl, 4 mM MgCl2, 0.025 U/μL Taq DNA polymerase (Takara Biochemicals, Osaka, Japan), and 0.2 μM each of the upstream sense primer and downstream antisense primer. […] For human 18S ribosomal RNA, the sense primer ([…] NO: 6) and the antisense primer ([NT] ID NO: 7) were used as the internal control. PCR was carried out with an automatic heat controller (Perkin Elmer, Foster, Calif.). The PCR conditions were: initial denaturation, at 94° C. for 2 min; 30 cycles of denaturation at 94° C. for 1 min, annealing at 58° C. for 1 min and extension at 72° C. for 1 min; last extension at 72° C. for 1 min. As an internal control, PCR with primers for 18S rRNA was included in each reaction. […] For semi-quantitative analysis of mRNA, the kinetics of PCR was monitored. […] The intensity of the bands was measured by computer analysis using NIH software.
# hTGF-β1 promoter [1] = experiment: Transient transfection and luciferase assay in hVSMC; assay type: cell-based, human; conditions: for expression of luciferase driven by hTGF-β1 promoter: 10^−9 M, 24 hr incubation
# Experimental: One microgram of the luciferase gene which was controlled by the hTGF-β1 promoter was transfected for 6 hr in sterilized medium using lipofectin reagent. After 24 hr of the transfection, cells were incubated for 24 hr in a medium containing 0.5% CS in the presence (or absence) of the polyamide or the mismatched polyamide, and the luciferase activity was assayed in these cells extracts using a dual luciferase/reporter gene assay system. One hundred μL of luciferase substrate was mixed with 20 μL cell extracts. After the mixing, the reaction mixture was placed in a luminometer (Turner Designs-Bioblock, Illkirch, France), and the light emitted for ten seconds at room temperature was measured. PMA was used as a positive control. Comparison with the control *P<0.05.
# (§1) The 2.2 kb fragment containing the hTGF-β1 promoter derived from plasmid phTBG 101 (non-patent document 10) was isolated and inserted to pGL3 basic plasmid (Promega, Madison, Wis.) at the upstream of the coding region of luciferase reporter gene. The accurate structure of the constructed plasmid was identified by spectral analysis with restriction enzymes analysis and sequencing.
# hVSMC cells were cultured at a density of […] in 24 well plates in the presence of 10% CS. After 24 hr, the reporter gene that was driven by the hTGF-β1 promoter was transfected using Lipofectin reagent (GibcoBRL) in the presence of 1 μg DNA in the sterilized medium, according to the method indicated by the manufacturer. Cells were incubated with the DNA liposome complex for 6 hours, and then the medium was exchanged to 1 ml of fresh complete medium. […] After brief centrifugation, luciferase activity in the cell extracts was measured using a dual-luciferase reporter gene assay system (Promega, Madison, Wis.). […] After mixing, the reaction mixture was placed in a luminometer (Turner Designs-Bioblock, Illkirch, France), and the light emitted for ten seconds at room temperature was measured.
# hTGF-β1 promoter [2] = experiment: In vitro transcription reaction with HeLa nuclear extract; assay type: biochemical, human; conditions: HeLa nuclei extract, hTGF-β1 promoter template, 30° C., 60 min
# Experimental: One microgram of a plasmid was incubated in the transcription buffer with 8 U of HeLa nucleus extract, 3 kinds of non-labeled nucleotide triphosphates (UTP, CTP, GTP) at […] each, and 25 μM α-^32P-ATP at 30° C. for 60 min. The reaction was terminated by adding 175 μl of HeLa extract stop solution, and then phenol-chloroform-isoamyl alcohol extraction and ethanol precipitation were carried out. Samples were re-suspended in 98% […] loading dye and heated at 90° C. for 10 min before loading a 6%, 7 M urea-polyacrylamide gel. The gel was dried and visualized by autoradiography;
# as §1
# In vitro transcription reactions were carried out using nuclear extracts of Hela cells and the in vitro transcription system (Promega, Madison, Wis.). […]
# hTGF-β1 protein = experiment: Western blot analysis of hTGF-β1 protein in hVSMC; assay type: cell-based, human; conditions: 10^−9 M, 24 hr incubation
# Experimental: 10^−9 M of the polyamide was added to medium of cultured hVSMC and incubated for 24 hr. (A) The expression of hTGFβ1 protein was investigated by Western blot analysis.
# Test VSMC and control VSMC were incubated in 6-well plates for 24 hr, washed twice with PBS and incubated on ice in 300 μL of lysis buffer (50 mM Tris-HCl (pH 8.0), 150 mM NaCl, 1 mM EDTA, 1 mM phenylmethylsulfonyl fluoride, 1 μg/mL aprotinin, 1% Triton X-100) for 30 min. Cells were scraped into a 1.5 mL tube and centrifuged, and the supernatant was collected. The protein content of the supernatant was assayed by Bradford protein assay using BIO-RAD protein assay kit (Bio-Rad Lab, Hercules, Calif.). The supernatant contained 20 μg of total protein, which was denatured at 100° C. for 3 min in the loading buffer, electrophoresed on a 10% polyacrylamide gel and transferred to a nitrocellulose membrane. The membrane was incubated at room temperature for 1 hr with mouse monoclonal antibody with specificity to hTGF-β1 (1:500) (R&D systems, Minneapolis, Minn.), and then incubated at room temperature for 1 hr with anti-mouse HRP conjugated secondary antibody at 1:2000. After washing sufficiently, the membrane was incubated with an […] luminescence substrate (Amersham Life Service, Buckinghamshire, UK) and exposed to an X-ray film.
# [3] = tested on: double stranded oligonucleotide corresponding to the base pairs from −548 to −537 of hTGF-β1 promoter; experiment: Gel-shift assay: binding of polyamide to double stranded oligonucleotide; set-up: species or system human; conditions: binding buffer, 37° C., 15 min; 20% polyacrylamide gel, autoradiography
# Experimental: The double stranded DNA corresponding to the base pair sequence from −548 to −537 of the hTGF-β1 promoter (FIG. 1) was labeled by T4 polynucleotide using [γ-^32P]-ATP and incubated in a binding buffer at 37° C. for 15 min together with mismatch polyamide (lane 0) or with increasing amount of the polyamide (lane 1, 2 and 3 was 1 nM, 2 nM and 4 nM, respectively). The complexes thus obtained were electrophoresed on a 20% polyacrylamide gel and visualized by autoradiography.
# Oligonucleotides were synthesized, annealed, and 12 kinds of double stranded oligonucleotides were produced corresponding to the base pairs from −548 to −537 of hTGF-β1 promoter (FIG. 1A). The double stranded DNAs were labeled with [γ-^32P]-ATP using T4 polynucleotide kinase, and incubated in a binding buffer (40 mM Tris, pH 7.9, 250 mM NaCl, 25 mM EDTA, 25 mM DTT, 100 mM KCl) with the polyamides or mismatched polyamides at 37° C. for 15 min. The complexes thus obtained were electrophoresed by 20% polyacrylamide gel and visualized by autoradiography.
# Experimental for cultured hVSMC: FITC labeled polyamide was added directly to the culture medium at the concentration of 10^−9 M and observed under a fluorescent microscope.
# hVSMC was obtained from Clonetics (Walkersville, Md.). hVSMC was cultured in Dulbecco's modified Eagle's medium (DMEM) containing 10% calf serum (Gibco Life Technologies, Gaithersburg, Md.), 100 U/ml penicillin and 100 mg/ml streptomycin. Cells were passaged by trypsin treatment with 0.05% trypsin (Gibco) in Ca^2+-free and Mg^2+-free phosphate buffered saline (PBS) and cultured in 75-cm^2 tissue culture flasks. The medium was exchanged every four or five days, and experiments were carried out on cells during 5-10 passages.
# Passaged hVSMC was cultured at a density of 10^5/cm^2 for 24 hr in a 24-well flask. FITC-labeled polyamides were directly added to the medium at a concentration of 10^−9 M and observed every one hour under a florescent microscope.
molecule,measurement,setting,value
CCCCCCCCCCCCCC(=O)O[C@@H]1[C@@H](C)[C@@]2(O)[C@@H](C=C(CO)C[C@]3(O)C(=O)C(C)=C[C@@H]23)[C@H]2C(C)(C)[C@]12OC(C)=O [TPA],expression of hTGF-β1 mRNA (positive control),hTGF-β1 mRNA; 50 ng/mL,significantly stimulated the expression of hTGF-β1 mRNA
same,expression of luciferase driven by hTGF-β1 promoter (positive control),hTGF-β1 promoter [1]; positive control,stimulated the expression of luciferase protein
"CN(C)CCCNC(=O)CCNC(=O)c1cc(NC(=O)c2cc(NC(=O)CCNC(=O)c3cc(NC(=O)c4cc(NC(=O)c5cc(NC(=O)CCCNC(=O)c6cc(NC(=O)c7cc(NC(=O)c8nc(NC(=O)CCNC(=O)c9cc(NC(=O)c%10cc(NC(=O)c%11nc(NC(=O)CCNC(=S)Nc%12ccc%13c(c%12)C(=O)OC%13%12c%13ccc(O)cc%13Oc%13cc(O)ccc%13%12)cn%11C)cn%10C)cn9C)cn8C)cn7C)cn6C)cn5C)cn4C)cn3C)cn2C)cn1C [compound 4a, FITC-β-IPP-β-IPP-γ-PPP-β-PP-β Dp]",detection of FITC in the nuclei of cultured hVSMC,cultured hVSMC,detected in the nuclei of cultured hVSMC at a high density
same,time FITC labeled polyamide remains in the nucleus of cultured hVSMC,cultured hVSMC,more than 48 hr
"CC(=O)Nc1cn(C)c(C(=O)Nc2cc(C(=O)Nc3cc(C(=O)NCCC(=O)Nc4cn(C)c(C(=O)Nc5cc(C(=O)Nc6cc(C(=O)NCCCC(=O)Nc7cc(C(=O)Nc8cc(C(=O)Nc9cc(C(=O)NCCC(=O)Nc%10cc(C(=O)Nc%11cc(C(=O)NCCC(=O)O)n(C)c%11)n(C)c%10)n(C)c9)n(C)c8)n(C)c7)n(C)c6)n(C)c5)n4)n(C)c3)n(C)c2)n1 [compound 4b, Ac-IPP-β-IPP-γ-PPP-β-PP-βCOOH]",expression of hTGF-β1 mRNA,hTGF-β1 mRNA,inhibited the expression of hTGF-β1 mRNA induced by TPA
same,transcription in in vitro transcription system,hTGF-β1 promoter [2],reduce transcription
same,expression of hTGF-β1 protein,hTGF-β1 protein,inhibited the expression of hTGF-β1 protein
same,binding to the corresponding 12 base pairs double stranded oligonucleotide,[3],able to bind
same,expression of luciferase driven by hTGF-β1 promoter,hTGF-β1 promoter [1],significantly downregulated the expression of luciferase
Ac-PPP-β-IPP-γ-PPP-β-COOH [mismatch polyamide],expression of hTGF-β1 mRNA,hTGF-β1 mRNA,did not
same,transcription in in vitro transcription system,hTGF-β1 promoter [2],did not show any significant effect
same,binding to the corresponding 12 base pairs double stranded oligonucleotide,[3],failed to bind
same,expression of luciferase driven by hTGF-β1 promoter,hTGF-β1 promoter [1],had no effect
